Legend:
[1] = organism: Rattus norvegicus; experiment: Inhibition of blood brain barrier choline transporter-mediated [3H]choline uptake in Fischer-344 rat brain at 250 uM by perfusion technique; assay type: tissue-based
[2] = Inhibition of nAChR-mediated nicotine-induced [3H]dopamine release

Structure (SMILES): CCCCC#CCCCCCC[n+]1ccc(C)cc1
- logKi [1]: 2.58

Structure (SMILES): Cc1cccc[n+]1CCCc1ccc(-c2ccc(CCC[n+]3ccccc3C)cc2)cc1
- logKi [1]: 2

Structure (SMILES): Cc1cc[n+](CCCCCCCCCCCC[n+]2ccc(C)cc2)cc1
- logKi [1]: 1.93

Structure (SMILES): C(#Cc1ccc(C#CCC[n+]2ccc3c(c2)CCCC3)cc1)CC[n+]1ccc2c(c1)CCCC2
- logKi [1]: 0.732

Structure (SMILES): Cc1cc[n+](CCCc2ccc(-c3ccc(CCC[n+]4ccc(C)c(C)c4)cc3)cc2)cc1C
- logKi [1]: 1.75

Structure (SMILES): Cc1cc(C)c[n+](CCCCc2ccc(CCCC[n+]3cc(C)cc(C)c3)cc2)c1
- logKi [1]: 2.56

Structure (SMILES): Cc1cc[n+](CCCc2ccc(-c3ccc(CCC[n+]4ccc(C)cc4)cc3)cc2)cc1
- logKi [1]: 1.63

Structure (SMILES): Cc1cc(C)c[n+](CCC#Cc2ccc(C#CCC[n+]3cc(C)cc(C)c3)cc2)c1
- logKi [1]: 0.867

Structure (SMILES): Cc1ccc[n+](CCCCCCCCCCCC[n+]2cccc(C)c2)c1
- IC50 [2]: 2 nM

Structure (SMILES): c1cc(-c2ccc(CCC[n+]3ccc4c(c3)CCCC4)cc2)ccc1CCC[n+]1ccc2c(c1)CCCC2
- logKi [1]: 1.2

Structure (SMILES): OCCCc1ccc[n+](CCCc2ccc(CCC[n+]3cccc(CCCO)c3)cc2)c1
- logKi [1]: 2.09

Structure (SMILES): C1#Cc2ccc[n+](c2)CCCCCC[n+]2cccc(c2)C#CCCCCCCCC1
- logKi [1]: 1.53

Structure (SMILES): Cc1ccc[n+](CCC#Cc2ccc(C#CCC[n+]3cccc(C)c3)cc2)c1
- logKi [1]: 0.595

Structure (SMILES): Cc1cc[n+](C#Cc2ccc(-c3ccc(C#C[n+]4ccc(C)c(C)c4)cc3)cc2)cc1C
- logKi [1]: 1.98

Structure (SMILES): C1#Cc2ccc[n+](c2)CCCCCCCCC[n+]2cccc(c2)C#CCCCCCCCC1
- logKi [1]: 0.146

Structure (SMILES): CC[N+](CC)(CC)CCCCCCCCCCCC[n+]1cccc(C)c1
- logKi [1]: 1.34

Structure (SMILES): Cc1cc[n+](CCC#Cc2ccc(C#CCC[n+]3ccc(C)cc3)cc2)cc1
- logKi [1]: 0.929

Structure (SMILES): c1ccc2c(c1)ccc[n+]2CCCCCC[n+]1cccc2ccccc21
- logKi [1]: 1.26

Structure (SMILES): Cc1cc[n+](CCC#Cc2ccc(C#CCC[n+]3ccc(C)c(C)c3)cc2)cc1C
- logKi [1]: 0.924

Structure (SMILES): Cc1cc(C)c[n+](CCCCCCCCCCC[n+]2cc(C)cc(C)c2)c1
- logKi [1]: 1.81

Structure (SMILES): OCCCc1ccc[n+](CCCc2ccc(-c3ccc(CCC[n+]4cccc(CCCO)c4)cc3)cc2)c1
- logKi [1]: 1.86

Structure (SMILES): c1cc2c([n+](CCCc3ccc(-c4ccc(CCC[n+]5cccc6c5CCCC6)cc4)cc3)c1)CCCC2
- logKi [1]: 1.37

Structure (SMILES): C1#Cc2ccc[n+](c2)CCCCCCCCCCC[n+]2cccc(c2)C#CCCCCCCCC1
- logKi [1]: 1.18

Structure (SMILES): CN1CCCC1c1ccc[n+](CCCc2ccc(-c3ccc(CCC[n+]4cccc(C5CCCN5C)c4)cc3)cc2)c1 (stereo unspecified)
- logKi [1]: 1.73

Structure (SMILES): CCCCc1ccc(CCCC[n+]2ccc(C)cc2)cc1
- logKi [1]: 2.69

Structure (SMILES): CCCCC#CCCCCCC[n+]1cccc(C2CCCN2C)c1 (stereo unspecified)
- logKi [1]: 1.92
